Measured values from patent US8519188B2, “Compounds which can be used for the treatment of cancers” (Marc-Henry Pitty, priority 2008, dated 2013).

Experiments:
[1] = test system: MCF-7/adr adriamycin-resistant breast cancer cell line; experiment: Cell proliferation (CellTiter 96 AQueous MTS/PMS), MCF-7/adr; type: cell-based; conditions: Homo sapiens, NCI/ADR-RES; MCF-7/adr; 72 hours of incubation; concentration that induces the death of 50% of the cells; read-out: CI50 for various cell lines (nM) MCF-7/adr
Experimental: (§1) The effects of the compounds of the invention on the proliferation of cancer cells were studied on various human cancer cell lines of various tissue origins (MCF-7: breast cancer, MCF-7/adr adriamycin-resistant breast cancer, ARH-77: myeloma, ARH-77/Dox: doxorubicin (other name for adriamycin)-resistant myeloma, HL-60: acute promyelocytic leukaemia, HL-60/R10: doxorubicin-resistant acute promyelocytic leukaemia). The cancer cells used for this study were incubated at 37° C. in the presence of one of the compounds of the invention added to the culture medium at various concentrations.
(§2) The cancer cell lines originate from the ATCC (American Type Culture Collection) in the case of MCF-7, ARH-77 and HL-60, from Pharmacell (Paris, France) for HL-60/R10, from Oncodesign (Dijon, France) for ARH-77/Dox and from the Pitié Salpetrière Hospital for MCF-7/adr. They were cultivated in a RPMI 1640 medium containing 2 mM L-glutamine and supplemented with 10% foetal calf serum. All the cell lines were maintained in culture at 37° C. in a moist atmosphere containing 5% CO2. Cell proliferation was evaluated using the “CellTiter 96® AQueous” reagent (Promega, Wis., USA) while adhering to the manufacturer's instructions. The cells were seeded in 96-well culture plates in a proportion of from 5,000 to 10,000 cells per well in 200 μl of culture medium. After 24 hours of preincubation at 37° C., the compounds of the invention dissolved in dimethyl sulphoxide (DMSO) were added individually to each of the wells in a proportion of 2 μl per well. After 72 hours of incubation at 37° C. in a moist atmosphere containing 5% CO2, 40 μL of a MTS/PMS ([3-(4,5-dimethylthiazol-2-yl)-5-(3-carboxymethoxyphenyl)-2-(4-sulphophenyl)-2H-tetrazolium phenazine methosulphate) solution were added to each well.

[2] = test system: MCF-7 breast cancer cell line; experiment: Cell proliferation (CellTiter 96 AQueous MTS/PMS), MCF-7; type: cell-based; conditions: Homo sapiens, MCF7; MCF-7; 72 hours of incubation; concentration that induces the death of 50% of the cells; read-out: CI50 for various cell lines (nM) MCF-7
Experimental: as §1, §2

SMILES	IC50 [1]	IC50 [2]
C#CC(=O)N(c1cccc(C(F)(F)F)c1)C(C(=O)NC1CCCCC1)c1ccccc1[N+](=O)[O-] (stereo not drawn) [Compound 85, Propynoic Acid [cyclohexylcarbamoyl-(2-nitrophenyl)methyl]-(3-trifluoromethylphenyl)amide]	1.6 nM	177 nM
COC(=O)c1ccc(NC(=O)C(c2cccs2)N(C(=O)CCl)c2cccc(C(F)(F)F)c2)cc1 (stereo not drawn) [Compound 154]	3.5 nM	88 nM
C#CC(=O)N(c1ccc(C(O)(C(F)(F)F)C(F)(F)F)cc1)C(C(=O)NC1CCCCC1)c1cccs1 (stereo not drawn) [Compound 29, Propynoic Acid (cyclohexylcarbamoylthiophen-2-yl-methyl)-[4-(2,2,2-trifluoro-1-hydroxy-1-trifluoromethylethyl)phenyl]amide]	18 nM	877 nM
C#CC(=O)N(c1cccc(C(F)(F)F)c1)C(C(=O)NC1CCCCC1)c1cccc2c1OCO2 (stereo not drawn) [Compound 84, Propynoic Acid (benzo[1,3]dioxol-4-yl-cyclohexylcarbamoylmethyl)-(3-trifluoromethyl-phenyl)amide]	1.6 nM	250 nM
O=C(NC1CCCCC1)C(c1ccc(N2CCCC2)cc1)N(C(=O)CCl)c1cccc(C(F)(F)F)c1 (stereo not drawn) [Compound 150]	0.6 nM	230 nM
COc1ccccc1N(C(=O)CCl)C(C(=O)NC1CCCCC1)c1cccs1 (stereo not drawn) [Compound 124, 2-[(2-Chloroacetyl)-(2-methoxyphenyl)amino]-N-cyclohexyl-2-thiophen-2-yl-acetamide]	27 nM	> 2000 nM
C#CC(=O)N(c1cccc(C(F)(F)F)c1)C(C(=O)NC1CCCCC1)c1ccc2c(c1)OCO2 (stereo not drawn) [Compound 63, Propynoic Acid (benzo[1,3]dioxol-5-yl-cyclohexylcarbamoylmethyl)-(3-trifluoromethylphenyl)amide]	2 nM	401 nM
C#CC(=O)N(c1ccc(C(C)(C)C)cc1)C(C(=O)NC1CCCCC1)c1cccs1 (stereo not drawn) [Compound 52, Propynoic Acid (4-tert-butylphenyl)(cyclohexylcarbamoylthiophen-2-yl-methyl)amide]	3.5 nM	708 nM
C#CC(=O)N(c1cccc([N+](=O)[O-])c1)C(C(=O)NC1CCCCC1)c1cccs1 (stereo not drawn) [Compound 27, Propynoic Acid (cyclohexylcarbamoylthiophen-2-yl-methyl)-(3-nitrophenyl)amide]	0.8 nM	110 nM
COC(=O)c1cccc(NC(=O)C(c2cccs2)N(C(=O)CCl)c2cccc(C(F)(F)F)c2)c1 (stereo not drawn) [Compound 153]	1.3 nM	79 nM
O=C(CN(C(=O)CCl)c1cccc(C(F)(F)F)c1)NC1CCCCC1 [Compound 130, 2-Chloro-N-cyclohexylcarbamoylmethyl-N-(3-trifluoromethylphenyl)acetamide]	34 nM	203 nM
C#CC(=O)N(c1cccc(C(F)(F)F)c1)C(C(=O)NC1CCCCC1)c1ccc(C)cc1C (stereo not drawn) [Compound 100, Propynoic Acid [cyclohexylcarbamoyl-(2,4-dimethylphenyl)methyl]-(3-trifluoromethylphenyl)amide]	0.5 nM	308 nM
C#CC(=O)N(c1cccc(C(F)(F)F)c1)C(C(=O)NC1CCCCC1)c1ccc(C#N)cc1 (stereo not drawn) [Compound 81, Propynoic Acid [(4-cyanophenyl)cyclohexylcarbamoylmethyl]-(3-trifluoromethylphenyl)amide]	1.6 nM	269 nM
C#CC(=O)N(c1ccccc1C#N)C(C(=O)NC1CCCCC1)c1cccs1 (stereo not drawn) [Compound 54, Propynoic Acid (2-cyanophenyl)(cyclohexylcarbamoylthiophen-2-yl-methyl)amide]	2.9 nM	224 nM
O=C(NC1CCCCC1)C(c1cccs1)N(C(=O)CCl)c1cccc(C(F)(F)F)c1 (stereo not drawn) [Compound 110, 2-[(2-Chloroacetyl)-(3-trifluoromethylphenyl)amino]-N-cyclo hexyl-2-thiophen-2-yl-acetamide]	1 nM	70 nM
COc1ccc(N(C(=O)CCl)C(C(=O)NC2CCCCC2)c2cccs2)cc1 (stereo not drawn) [Compound 109, 2-[(2-Chloroacetyl)-(4-methoxyphenyl)amino]-N-cyclohexyl-2-thiophen-2-yl-acetamide]	1 nM	100 nM
C#CC(=O)N(c1cccc(-c2ccccc2)c1)C(C(=O)NC1CCCCC1)c1cccs1 (stereo not drawn) [Compound 58, Propynoic acid biphenyl-3-yl-(cyclohexylcarbamoylthiophen-2-yl-methyl)amide]	2.4 nM	580 nM
C#CC(=O)N(c1ccc(Oc2ccccc2)cc1)C(C(=O)NC1CCCCC1)c1cccs1 (stereo not drawn) [Compound 55, Propynoic Acid (cyclohexylcarbamoylthiophen-2-yl-methyl)-(4-phenoxyphenyl)amide]	2.4 nM	694 nM
C#CC(=O)N(c1ccc2[nH]ncc2c1)C(C(=O)NC1CCCCC1)c1cccs1 (stereo not drawn) [Compound 49, Propynoic Acid (cyclohexylcarbamoylthiophen-2-yl-methyl)-(1H-indazol-5-yl)-amide]	1 nM	220 nM
C#CC(=O)N(c1ccc(F)cc1F)C(C(=O)NC1CCCCC1)c1cccs1 (stereo not drawn) [Compound 50, Propynoic Acid (cyclohexylcarbamoylthiophen-2-yl-methyl)-(2,4-difluorophenyl)amide]	2 nM	282 nM
C#CC(=O)N(c1cccc(C(F)(F)F)c1)C(C(=O)Nc1ccccc1OCc1ccccc1)c1cccs1 (stereo not drawn) [Compound 112, Propynoic Acid [(2-benzyloxyphenylcarbamoyl)thiophen-2-yl-methyl]-(3-trifluoromethylphenyl)amide]	1.8 nM	200 nM
C#CC(=O)N(c1cccc(C#C)c1)C(C(=O)NC1CCCCC1)c1cccs1 (stereo not drawn) [Compound 56, Propynoic Acid (cyclohexylcarbamoylthiophen-2-yl-methyl)-(3-ethynylphenyl)amide]	1.4 nM	640 nM
O=C(NC1CCCCC1)C(c1cccs1)N(C(=O)CCl)c1ccc(C(F)(F)F)cc1 (stereo not drawn) [Compound 129, 2-[(2-Chloroacetyl)-(4-trifluoromethylphenyl)amino]-N-cyclohexyl-2-thiophen-2-yl-acetamide]	3.6 nM	77 nM
O=C(NC1CCCCC1)C(c1cccs1)N(C(=O)CCl)c1cccc2ccccc12 (stereo not drawn) [Compound 134, 2-[(2-Chloroacetyl)naphthalen-1-yl-amino]-N-cyclohexyl-2-thiophen-2-yl-acetamide]	74 nM	> 1000 nM
COc1ccc(CNC(=O)C(C)(C)N(C(=O)CCl)c2ccc(Oc3ccccc3)cc2C)cc1 [Compound 187, 2-[(2-Chloro-acetyl)-(2-methyl-4-phenoxy-phenyl)-amino]-N-(4-methoxy-benzyl)-2-methyl-propionamide]	99 nM	1130 nM
C#CC(=O)N(c1cccc(C(F)(F)F)c1)C(C(=O)NC1CCCCC1)c1ccc(Cl)c(Cl)c1 (stereo not drawn) [Compound 102, Propynoic Acid [cyclohexylcarbamoyl-(3,4-dichlorophenyl)methyl]-(3-trifluoromethylphenyl)amide]	1 nM	428 nM
CC(C)(C(=O)NCc1ccc(F)cc1)N(C(=O)CCl)c1ccc(F)cc1 [Compound 185, 2-[(2-Chloroacetyl)-(4-fluoro-phenyl)-amino]-N-(4-fluoro-benzyl)-2-methyl-propionamide]	127 nM	2790 nM
